From ChEMBL document CHEMBL1201862, “PubChem BioAssay data set” (2004)
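Values below derive from 48-hour exposures of cells grown in 96-well plates, with endpoints linearly interpolated between the two concentrations bracketing the appropriate inhibition level. GI50 marks 50% less growth.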 The source made the active and inactive calls. Rule as the data show it: active = GI50 up to about 1.1 µM and inactive = higher.

Key:
Assay in all cases: NCI tumour cell line growth inhibition, 48 h
A498 = test system: A498
ACHN = test system: ACHN
BT-549 = test system: BT-549
CAKI-1 = test system: CAKI-1
HCT-15 = test system: HCT-15
HOP-62 = test system: HOP-62
Hs-578T = test system: Hs-578T
MDA-MB-231 = test system: MDA-MB-231
MDA-MB-435 = test system: MDA-MB-435
OVCAR-4 = test system: OVCAR-4
OVCAR-5 = test system: OVCAR-5
OVCAR-8 = test system: OVCAR-8
PC-3 = test system: PC-3
SF-295 = test system: SF-295
SF-539 = test system: SF-539
SK-OV-3 = test system: SK-OV-3
SN12C = test system: SN12C
SNB-75 = test system: SNB-75
SR = test system: SR
UACC-257 = test system: UACC-257

Row | SMILES | GI50 (A498) | GI50 (ACHN) | GI50 (BT-549) | GI50 (CAKI-1) | GI50 (HCT-15) | GI50 (HOP-62) | GI50 (Hs-578T) | GI50 (MDA-MB-231) | GI50 (MDA-MB-435) | GI50 (OVCAR-4) | GI50 (OVCAR-5) | GI50 (OVCAR-8) | GI50 (PC-3) | GI50 (SF-295) | GI50 (SF-539) | GI50 (SK-OV-3) | GI50 (SN12C) | GI50 (SNB-75) | GI50 (SR) | GI50 (UACC-257)
1 | COC1=CC(=O)c2c(cc(COP(N)(=O)N(CCCl)CCCl)n2C)C1=O (stereo not given) | 2.2 µM (inactive) | < 0.0183 µM (active) | 0.471 µM (active) | < 0.0158 µM (active) | 1.13 µM | 2.18 µM (inactive) | 8.26 µM (inactive) | 2.33 µM (inactive) | 1.61 µM (inactive) | 3.52 µM (inactive) | 1.26 µM (inactive) | 0.433 µM (active) | 1.49 µM (inactive) | 0.189 µM (active) | 0.0785 µM (active) | 1.02 µM (active) | < 0.0241 µM (active) | 0.955 µM (active) | 0.0603 µM (active) | 3.28 µM (inactive)
2 | O=C(N/N=C\C=C\c1ccc([N+](=O)[O-])o1)C(=O)N/N=C\C=C\c1ccc([N+](=O)[O-])o1 | > 100 µM (inactive) | > 100 µM (inactive) | > 100 µM (inactive) | > 100 µM (inactive) | 81.7 µM | 82.2 µM (inactive) | > 100 µM (inactive) | > 100 µM (inactive) | > 100 µM (inactive) | 34.9 µM (inactive) | > 100 µM (inactive) | 23.2 µM (inactive) | > 100 µM (inactive) | > 100 µM (inactive) | 3.19 µM (inactive) | > 100 µM (inactive) | > 100 µM (inactive) | > 100 µM (inactive) | 35.5 µM (inactive) | > 100 µM (inactive)
3 | O=C(Nc1ccc(Cl)cc1)NS(=O)(=O)c1coc2ccccc2c1=O | > 10 µM (inactive) | > 10 µM (inactive) | > 10 µM (inactive) | > 10 µM (inactive) | > 10 µM | > 10 µM (inactive) | > 10 µM (inactive) | > 10 µM (inactive) | > 10 µM (inactive) | > 10 µM (inactive) | > 10 µM (inactive) | > 10 µM (inactive) | > 10 µM (inactive) | > 10 µM (inactive) | > 10 µM (inactive) | > 10 µM (inactive) | > 10 µM (inactive) | > 10 µM (inactive) | > 10 µM (inactive) | > 10 µM (inactive)
4 | N#C/C(=C\N1CCNC1=S)C(=O)c1ccc2ccccc2c1 | > 100 µM (inactive) | > 100 µM (inactive) | > 100 µM (inactive) | > 100 µM (inactive) | > 100 µM | > 100 µM (inactive) | > 100 µM (inactive) | > 100 µM (inactive) | 89.1 µM (inactive) | 74 µM (inactive) | > 100 µM (inactive) | > 100 µM (inactive) | 97.1 µM (inactive) | > 100 µM (inactive) | > 100 µM (inactive) | > 100 µM (inactive) | > 100 µM (inactive) | > 100 µM (inactive) | 71.4 µM (inactive) | > 100 µM (inactive)
5 | NCCSCC(N)C(=O)O (stereo not given) | > 497 µM (inactive) | 65.9 µM (inactive) | > 100 µM (inactive) | > 100 µM (inactive) | > 87.5 µM | > 497 µM (inactive) | > 95.1 µM (inactive) | > 100 µM (inactive) | 51.2 µM (inactive) | > 497 µM (inactive) | > 497 µM (inactive) | > 497 µM (inactive) | > 100 µM (inactive) | > 497 µM (inactive) | > 497 µM (inactive) | > 497 µM (inactive) | > 497 µM (inactive) | > 40.4 µM (inactive) | > 497 µM (inactive) | > 497 µM (inactive)
6 | CC1CCCC(C(=O)CC2CC(=O)NC(=O)C2)C1=O (stereo not given) | > 100 µM (inactive) | > 100 µM (inactive) | > 100 µM (inactive) | > 100 µM (inactive) | > 100 µM | > 100 µM (inactive) | > 100 µM (inactive) | > 100 µM (inactive) | > 100 µM (inactive) | > 100 µM (inactive) | > 100 µM (inactive) | > 100 µM (inactive) | > 100 µM (inactive) | > 100 µM (inactive) | > 100 µM (inactive) | > 100 µM (inactive) | > 100 µM (inactive) | > 100 µM (inactive) | > 100 µM (inactive) | > 100 µM (inactive)
7 | O=C(/C(Cl)=C/c1ccccc1)c1ccccc1 | 20.6 µM (inactive) | 2.24 µM (inactive) | 2.22 µM (inactive) | 1.7 µM (inactive) | 2.47 µM | 19.2 µM (inactive) | 3.54 µM (inactive) | 5.6 µM (inactive) | 3.01 µM (inactive) | 4.41 µM (inactive) | 4.42 µM (inactive) | 2.84 µM (inactive) | 2.61 µM (inactive) | 17.5 µM (inactive) | 3.03 µM (inactive) | 19.7 µM (inactive) | 1.82 µM (inactive) | 13.2 µM (inactive) | 1.85 µM (inactive) | 6.9 µM (inactive)
8 | CSc1ccc2c(c1)C(N1CCN(C)CC1)Cc1ccccc1S2 (stereo not given) | 9.79 µM (inactive) | 3.25 µM (inactive) | 4.33 µM (inactive) | 3.65 µM (inactive) | 4.15 µM | 8.07 µM (inactive) | 4.4 µM (inactive) | 3.47 µM (inactive) | 2.32 µM (inactive) | 2.3 µM (inactive) | 2.67 µM (inactive) | 6.84 µM (inactive) | 4.3 µM (inactive) | 3.83 µM (inactive) | 6.11 µM (inactive) | 13.9 µM (inactive) | 6.28 µM (inactive) | < 0.01 µM (active) | 2.3 µM (inactive) | 2.07 µM (inactive)
9 | CCOC(=O)[C@@H]1[C@@H]2NC(=O)N[C@@]1(C)Oc1ccccc12 | > 100 µM (inactive) | > 100 µM (inactive) | > 100 µM (inactive) | > 100 µM (inactive) | > 100 µM | > 100 µM (inactive) | > 100 µM (inactive) | > 100 µM (inactive) | > 100 µM (inactive) | > 100 µM (inactive) | > 100 µM (inactive) | > 100 µM (inactive) | > 100 µM (inactive) | > 100 µM (inactive) | > 100 µM (inactive) | > 100 µM (inactive) | > 100 µM (inactive) | > 100 µM (inactive) | > 100 µM (inactive) | > 100 µM (inactive)
10 | O=C(/C=C/c1cccc(Br)c1)c1ccc(Cl)cc1 | 13.3 µM (inactive) | 16.8 µM (inactive) | 17 µM (inactive) | 14 µM (inactive) | 14.8 µM | 19.2 µM (inactive) | 22.7 µM (inactive) | 18 µM (inactive) | 6.25 µM (inactive) | 4.36 µM (inactive) | 15.6 µM (inactive) | 17 µM (inactive) | 15 µM (inactive) | 17.5 µM (inactive) | 16.6 µM (inactive) | 21.1 µM (inactive) | 17.2 µM (inactive) | 13.6 µM (inactive) | 2.42 µM (inactive) | 17.1 µM (inactive)
11 | CC(CC[C@@H](O)C(C)(C)O)C1[C@@H](O)CC2(C)C3CC(O)C4C(C)(C)[C@@H](OC5OC(CO)C(O)C(O)C5O)CC[C@@]45C[C@@]35CC[C@]12C (stereo not given in full) | > 10 µM (inactive) | > 10 µM (inactive) | > 10 µM (inactive) | > 10 µM (inactive) | > 10 µM | > 10 µM (inactive) | > 10 µM (inactive) | > 10 µM (inactive) | > 10 µM (inactive) | > 10 µM (inactive) | > 10 µM (inactive) | > 10 µM (inactive) | > 10 µM (inactive) | > 10 µM (inactive) | > 10 µM (inactive) | > 10 µM (inactive) | > 10 µM (inactive) | > 10 µM (inactive) | > 10 µM (inactive) | > 10 µM (inactive)
12 | COc1cc(O)c(C(=O)/C=C/c2ccc(O)cc2)cc1Oc1ccc(/C=C/C(=O)c2ccc(O)cc2O)cc1 [RHUSCHALCONE III] | 6.93 µM (inactive) | 8.75 µM (inactive) | 8.79 µM (inactive) | 14.2 µM (inactive) | 8.85 µM | 10.8 µM (inactive) | 14.4 µM (inactive) | 15 µM (inactive) | 8.77 µM (inactive) | 8.07 µM (inactive) | 13.7 µM (inactive) | 9.02 µM (inactive) | 7.21 µM (inactive) | 10.1 µM (inactive) | 8.89 µM (inactive) | 8.36 µM (inactive) | 8.81 µM (inactive) | 12.6 µM (inactive) | 5.01 µM (inactive) | 10.1 µM (inactive)
13 | CCCCCNC1=CC(=O)c2ccccc2C1=O | 32.1 µM (inactive) | 58.9 µM (inactive) | 19.5 µM (inactive) | 33.7 µM (inactive) | 52.2 µM | 23.9 µM (inactive) | 27.8 µM (inactive) | 19.4 µM (inactive) | > 100 µM (inactive) | 59.7 µM (inactive) | > 100 µM (inactive) | 23 µM (inactive) | 37.6 µM (inactive) | 26.3 µM (inactive) | 20.6 µM (inactive) | > 51.4 µM (inactive) | 49.9 µM (inactive) | 22.2 µM (inactive) | 46.6 µM (inactive) | > 60.5 µM (inactive)
14 | C=C1C(=O)O[C@H]2[C@H]3O[C@@H](C[C@@H]12)[C@](C)(O)CC[C@@H]1O[C@@]1(C)CCC[C@H]3C | 23.6 µM (inactive) | 15.5 µM (inactive) | 12.2 µM (inactive) | 14.2 µM (inactive) | 16.9 µM | 78.3 µM (inactive) | 30.3 µM (inactive) | 25.1 µM (inactive) | 17.1 µM (inactive) | 16.5 µM (inactive) | 36.2 µM (inactive) | 15.7 µM (inactive) | 32 µM (inactive) | 68.9 µM (inactive) | 18.7 µM (inactive) | 29.4 µM (inactive) | 20.3 µM (inactive) | 18.5 µM (inactive) | 16.5 µM (inactive) | 22.9 µM (inactive)
